Measurements as given in patent US8372617B2, “β-galactoside-α2,6-sialyltransferase, a gene encoding thereof, and a method for enhancing enzyme activity” (Japan Tobacco Inc., priority 2007, dated 2013).

Legend:
[1] = test system: recombinant β-galactoside-α2,6-sialyltransferase N1C0; assay: Glycosyl acceptor substrate specificity, monosaccharides and disaccharides; format: biochemical, Photobacterium leiognathi; conditions: for % (nmol), relative activity toward acceptor substrate: sialyltransferase activity toward lactose set to 100; for transfer of sialic acid to acceptor substrate: 11 monosaccharides and disaccharides tested
Source text: The purified enzyme prepared in Example 3 for JT-SHIZ-145-derived recombinant β-galactoside-α2,6-sialyltransferase N1C0 (SEQ ID NO: 4) was used to cause sialic acid transfer reaction in various monosaccharides/disaccharides as glycosyl acceptor substrates. The reaction was accomplished as described in J. Biochem., 120, 104-110 (1996). The monosaccharides used as glycosyl acceptor substrates were the following 8 types: methyl-α-D-galactopyranoside (Gal-α-OMe), methyl-β-D-galactopyranoside (Gal-β-OMe), methyl-α-D-glucopyranoside (Glc-α-OMe), methyl-β-D-glucopyranoside (Glc-β-OMe), methyl-α-D-mannopyranoside (Man-α-OMe), methyl-β-D-mannopyranoside (Man-β-OMe), N-acetylgalactosamine (GalNAc), and N-acetylglucosamine (GlcNAc). The disaccharides used were the following 3 types: lactose (Gal-β1,4-Glc), N-acetyllactosamine (Gal-β1,4-GlcNAc) and Gal-β1,3-GalNAc.
It should be noted that the relative activity toward each acceptor substrate was calculated assuming that the sialyltransferase activity toward lactose was set to 100.

[2] = test system: recombinant β-galactoside-α2,6-sialyltransferase N1C0
Experimental: Using a crude enzyme solution, enzyme activity was measured in a reaction solution adjusted to contain calcium chloride and/or EDTA at a final concentration of 10 mM for calcium ion and 50 mM for EDTA.

[3] = test system: recombinant β-galactoside-α2,6-sialyltransferase N1C0; assay: Effect of addition of various salts (complex ions, Na+/K+) on enzyme activity; format: biochemical, Photobacterium leiognathi; conditions: anion concentration 0.1 M in Tris-HCl, 30° C.; compared to absence of addition
Experimental: Aqueous solutions were prepared for potassium nitrate (KNO3), sodium nitrate (NaNO3), potassium sulfate (K2SO4), sodium sulfate (Na2SO4), sodium dihydrogen phosphate (NaH2PO4), disodium hydrogen phosphate (Na2HPO4) and potassium phosphate (KH2PO4+K2HPO4 (abbreviated as KPB)). These aqueous solutions were each adjusted with Tris-HCl buffer to give an anion concentration of 0.1 M in the reaction solution at 30° C., and used for enzyme activity measurement.
It should be noted that enzyme activity in the reaction solution upon addition of each solution was evaluated as relative activity, assuming that the enzyme activity in the absence of addition (i.e., in Tris-HCl alone) was set to 1.

Compound | % (nmol), relative activity toward acceptor substrate [1] | transfer of sialic acid to acceptor substrate [1] | further results
CO[C@H]1O[C@H](CO)[C@H](O)[C@H](O)[C@H]1O [Gal-α-OMe, methyl-α-D-galactopyranoside] | 2% |  | 
CC(=O)N[C@H]1C(O)O[C@H](CO)[C@H](O)[C@@H]1O[C@@H]1O[C@H](CO)[C@H](O)[C@H](O)[C@H]1O (stereo partly drawn) [Gal-β1,3-GalNAc] | 71% | efficiently transferred | 
OC[C@H]1O[C@@H](O[C@H]2[C@H](O)[C@@H](O)C(O)O[C@@H]2CO)[C@H](O)[C@@H](O)[C@H]1O (stereo partly drawn) [Gal-β1,4-Glc, lactose] | 100% | efficiently transferred | 
CC(=O)N[C@H]1C(O)O[C@H](CO)[C@@H](O[C@@H]2O[C@H](CO)[C@H](O)[C@H](O)[C@H]2O)[C@@H]1O (stereo partly drawn) [Gal-β1,4-GlcNAc, N-acetyllactosamine] | 205% | efficiently transferred | 
CO[C@@H]1O[C@H](CO)[C@H](O)[C@H](O)[C@H]1O [Gal-β-OMe, methyl-β-D-galactopyranoside] | 59% | efficiently transferred | 
CC(=O)N[C@H]1C(O)O[C@H](CO)[C@H](O)[C@@H]1O (some centres unmarked) [GalNAc, N-acetylgalactosamine] | 35% | efficiently transferred | 
CO[C@H]1O[C@H](CO)[C@@H](O)[C@H](O)[C@H]1O [Glc-α-OMe, methyl-α-D-glucopyranoside] | 0% |  | 
CO[C@@H]1O[C@H](CO)[C@@H](O)[C@H](O)[C@H]1O [Glc-β-OMe, methyl-β-D-glucopyranoside] | 0% |  | 
CC(=O)N[C@H]1C(O)O[C@H](CO)[C@@H](O)[C@@H]1O (some centres unmarked) [GlcNAc, N-acetylglucosamine] | 6% |  | 
CO[C@H]1O[C@H](CO)[C@@H](O)[C@H](O)[C@@H]1O [Man-α-OMe, methyl-α-D-mannopyranoside] | 0% |  | 
CO[C@@H]1O[C@H](CO)[C@@H](O)[C@H](O)[C@@H]1O [Man-β-OMe, methyl-β-D-mannopyranoside] | 0% |  | 
[Ca+2].[Cl-].[Cl-] [calcium ion, calcium chloride] |  |  | enzyme activity with calcium ion together with EDTA ([2]; 10 mM calcium ion and 50 mM EDTA): almost the same level as in the absence of calcium ion; enzyme activity in the presence of calcium ion ([2]; 10 mM calcium ion, compared to absence of calcium ion): remarkably increased
O=P([O-])([O-])O.[Na+].[Na+] [disodium hydrogen phosphate] |  |  | effect of addition on enzyme activity [3]: maximum
potassium phosphate (KH2PO4+K2HPO4 (abbreviated as KPB)) [potassium phosphate (KPB)] |  |  | effect of addition on enzyme activity [3]: maximum
